Assay results from patent US20120136583A1, “METHOD FOR PREDICTING EFFICACY OF DRUGS IN A PATIENT” (WORLDWIDE INNOVATIVE NETWORK, priority 2009, published 2012).

Legend:
[1] = system: non-small cell lung carcinoma (NSCLC), cT4, N0, M1; experiment: Clinical course under treatment, patient of Example 1; format: in vivo, human; conditions: Example 1 patient
[2] = system: primary bronchial adenocarcinoma with bilateral pulmonary metastases and asymptomatic cerebral metastases; experiment: Clinical course under treatment, patient of Example 3; format: in vivo, human; conditions: Example 3 patient
Excerpt: A patient was diagnosized in May 2007 for a primary bronchial adenocarcinoma with bilateral pulmonary metastases and asymptomatic cerebral metastases. A surgical treatment has been carried out in November 2008 and two therapeutic lines have been used, namely thirteen cycles of cisplatin-gemcitabin for the first line and Alimta for the second one.
However, based on this score table, avastin associated with a score of 384 has been selected.

[3] = system: bronchial adenocarcinoma T4 with bones and pleural metastases; conditions: Example 2 patient

With `CCOc1cc2ncc(C#N)c(Nc3ccc(OCc4ccccn4)c(Cl)c3)c2cc1NC(=O)/C=C/CN(C)C` [HKI 272] the “Clinical response / disease status under treatment” value (“Clinical response / disease status” below) [1] was “efficient” and the “Time on treatment until disease progression” value [1] was 37 months.

With `Nc1nc2[nH]cc(CCc3ccc(C(=O)N[C@@H](CCC(=O)O)C(=O)O)cc3)c2c(=O)[nH]1` [PEMETREXED] the “Clinical response / disease status” value [2] was “disease progression”.

In the case of `C#Cc1cccc(Nc2ncnc3cc(OCCOC)c(OCCOC)cc23)c1` [Tarceva], the “Clinical response / disease status” value [3] is reported as “inefficient and led to a rapid progression”.

`CCC1=C[C@@H]2CN(C1)Cc1c([nH]c3ccccc13)[C@@](C(=O)OC)(c1cc3c(cc1OC)N(C)[C@H]1[C@@](O)(C(=O)OC)[C@H](OC(C)=O)[C@]4(CC)C=CCN5CC[C@]31[C@@H]54)C2` [VINORELBINE] was tested, and the “Clinical response / disease status” value [3] was “Three months later, the disease was stable, then progressed”.

“BEVACIZUMAB: drug whose major target gene is VEGFA” was tested, and the “Clinical response / disease status” value [2] was “major response”.
